The values below come from BindingDB's records for doi:10.7270/Q2319T8T (The Scripps Research Institute Molecular Screening Center, 2007).

The target of the first assay is Steroidogenic factor 1 (Homo sapiens, UniProt Q13285). As to the kind of experiment: SF-1 inhibitor potency, dose response, cell-based, CHO-K1, Gal4-SF-1 LBD, luciferase luminescence (AID 600).
Steroidogenic factor 1, sequence (Q13285 whole entry, the tested form may be a part): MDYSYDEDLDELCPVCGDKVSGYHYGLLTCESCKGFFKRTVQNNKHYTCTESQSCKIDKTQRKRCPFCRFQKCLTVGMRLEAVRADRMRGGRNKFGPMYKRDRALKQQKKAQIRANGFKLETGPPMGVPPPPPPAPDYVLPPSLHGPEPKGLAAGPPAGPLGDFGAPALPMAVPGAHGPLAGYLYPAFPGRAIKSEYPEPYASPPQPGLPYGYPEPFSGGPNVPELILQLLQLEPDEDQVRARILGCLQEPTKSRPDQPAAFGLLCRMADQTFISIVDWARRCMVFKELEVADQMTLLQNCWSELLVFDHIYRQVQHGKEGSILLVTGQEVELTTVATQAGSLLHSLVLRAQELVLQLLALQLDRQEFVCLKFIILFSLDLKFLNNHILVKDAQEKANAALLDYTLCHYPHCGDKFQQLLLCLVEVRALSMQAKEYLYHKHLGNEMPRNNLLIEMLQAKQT
Conditions: not given
Usually IC50 stands for the concentration that inhibits the measured activity by half. Higher therefore signals weaker potency. On to `COc1cccc2sc(Nc3nc(-c4ccccn4)cs3)nc12` [(4-methoxy-1,3-benzothiazol-2-yl)-[4-(2-pyridyl)thiazol-2-yl]amine], for which the IC50 came out at 4.48 µM.

In turn, `O=C(OC1CCOC1=O)c1ccc(-c2nc3ccccc3s2)s1` (centres undefined) [(2-oxidanylideneoxolan-3-yl) 5-(1,3-benzothiazol-2-yl)thiophene-2-carboxylate] showed a concentration for half-maximal inhibition (IC50) of 5.75 µM. Still for that read-out and setting: the result for `CCn1nc(-c2ccccc2)nc2c(=O)n(C)c(=O)nc1-2` [1-Ethyl-6-methyl-3-phenyl-1H-pyrimido[5,4-e][1,2,4]triazine-5,7-dione] reads 4.73 µM.

Consider `COc1cccc(-c2nnc(NC(=O)c3ccc(S(=O)(=O)N4CC(C)OC(C)C4)cc3)o2)c1` (centres undefined) [4-(2,6-dimethylmorpholin-4-yl)sulfonyl-N-[5-(3-methoxyphenyl)-1,3,4-oxadiazol-2-yl]benzamide], for which the IC50 was > 3.67 µM.

On to `Cc1ccc(CNc2nc3ccccc3s2)s1` [1,3-benzothiazol-2-yl-[(5-methyl-2-thienyl)methyl]amine], for which the IC50 was > 11 µM. The same measure, in the same setting: the result for `COCCNC(=O)CSCc1nc(-c2ccc(SC)cc2)oc1C` [MLS000089367] reads 0.595 µM; that for `Oc1c(CN2CCN(c3ccccn3)CC2)cc(Cl)c2cccnc12` [5-chloranyl-7-[(4-pyridin-2-ylpiperazin-1-yl)methyl]quinolin-8-ol], 7.6 µM.

As to `COc1ccc(CCNc2ncnc3c2oc2ccccc23)cc1OC` [MLS000041708], the IC50 turned out to be 9.38 µM. Same read-out and setting: the figure for `CCc1ccc(-c2nnn(CCC(=O)OC)n2)cc1` is 6.69 µM.

Take `CC[C@]1(O)CC2C[N@](CCc3c([nH]c4ccccc34)[C@@](C(=O)OC)(c3cc4c(cc3OC)N(C)[C@H]3[C@@](O)(C(=O)OC)[C@H](OC(C)=O)[C@]5(CC)C=CCN6CC[C@]43[C@@H]65)C2)C1` [(vinblastine) methyl 12-ethyl-4-[17-ethyl-17-hydroxy-13-methyloxycarbonyl-(13S,15R,17S)-1,11-diazatetracyclo[13.3.1.04,12.05,10]nonadeca-4(12),5,7,9-tetraen-13-yl]-10-hydroxy-5-methoxy-8-methyl-11-methylcarbonyloxy-(10S,11R,12R)-8,16-diazapentac sulfuric acid]: the IC50 worked out at 0.986 µM.

On to `Cc1ccc(C(=O)CC=Nc2ccccn2)cc1` [(E)-1-(4-methylphenyl)-3-(2-pyridinylamino)-2-propen-1-one], for which the half-inhibitory concentration (IC50) is > 11 µM. Still for that read-out and setting: the result for `COc1ccc(-n2ncc3c(N(C)C4CCCCC4)ncnc32)cc1` [MLS000100813] reads 0.292 µM; that for `CN(C)c1ccc(-c2nc3ccccc3n2C)cc1` [MLS000089904], > 3.67 µM; that for `CS(=O)(=O)c1nc(-c2ccccc2)cc(C(F)(F)F)n1` [MLS000044644], 5.09 µM.

Consider `Oc1c(CN2CCOCC2)cc(COCc2ccccc2)c2cccnc12` [5-(benzoxymethyl)-7-(morpholinomethyl)quinolin-8-ol], for which inhibition was half-maximal at 6.06 µM (IC50). Still for that read-out and setting: the figure for `COc1ccc(CC(=O)Nc2cccc(-c3nnc(-c4cccc(C)c4)o3)c2)cc1OC` [2-(3,4-dimethoxyphenyl)-N-[3-[5-(3-methylphenyl)-1,3,4-oxadiazol-2-yl]phenyl]acetamide] is > 3.67 µM; for `O=c1cc(N2CCN(c3cccc(Cl)c3)CC2)[nH]c(=O)n1C1CCCCC1` [MLS000094380] it is 0.315 µM. The same measure, in the same setting: the result for `CCNC(=O)CCc1nc(-c2ccc(C(C)(C)C)cc2)no1` [3-[3-(4-tert-butylphenyl)-1,2,4-oxadiazol-5-yl]-N-ethyl-propanamide] reads 0.0401 µM; that for `O=C(CC=Nc1ccccn1)c1ccc(Cl)cc1` [(Z)-1-(4-chlorophenyl)-3-(2-pyridinylamino)-2-propen-1-one], 6.09 µM; that for `CCNc1nc2c(c(=O)n(C)c(=O)n2C)n1Cc1ccc(Cl)cc1` [7-(4-chlorobenzyl)-8-(ethylamino)-1,3-dimethyl-xanthine], > 3.67 µM.

On to `Cc1csc(SCC(=O)c2cc(C)n(Cc3cccs3)c2C)n1` [1-[2,5-dimethyl-1-(2-thenyl)pyrrol-3-yl]-2-[(4-methylthiazol-2-yl)thio]ethanone], for which the IC50 is > 3.67 µM. The same measure, in the same setting: the result for `O=C(Nc1nc2ccccc2[nH]1)c1ccccc1F` [N-1,3-dihydro-2H-benzimidazol-2-ylidene-2-fluorobenzamide] reads 1.55 µM; that for `O=C(NCCOc1ccccc1)c1ccc2c(c1)OCO2` [MLS000100028], > 1.22 µM. On the same count and under the same terms, the result for `CS(=O)(=O)c1nc(-c2cccs2)cc(C(F)(F)F)n1` [MLS000044645] reads 5.46 µM; that for `CC1CCCN(c2ncnc3c2cnn3-c2ccccc2)C1` (centres undefined) [4-(3-methyl-1-piperidinyl)-1-phenylpyrazolo[3,4-d]pyrimidine], 6.8 µM; that for `Cc1ccc(-c2nc(-c3ccccc3)no2)c(Cl)c1` [5-(2-chloranyl-4-methyl-phenyl)-3-phenyl-1,2,4-oxadiazole], 4.71 µM. As to `CC(=O)c1ccc(N2CCN(c3ccc(C(F)(F)F)cn3)CC2)cc1` [1-[4-[4-[5-(trifluoromethyl)-2-pyridinyl]-1-piperazinyl]phenyl]ethanone], the IC50 is > 33 µM. On the same count and under the same terms, the figure for `COc1cccc(CNC(=O)c2nnn(CC(=O)Nc3ccc(C)c(C)c3)c2N)c1` [5-amino-1-[2-(3,4-dimethylanilino)-2-keto-ethyl]-N-m-anisyl-triazole-4-carboxamide] is 8.72 µM; for `Cn1nc(C(C)(C)C)cc1C(=O)NCc1ccc(N2CCCC2=O)cc1` [5-tert-Butyl-2-methyl-2H-pyrazole-3-carboxylic acid 4-(2-oxo-pyrrolidin-1-yl)-benzylamide] it is 9.05 µM; for `Cc1cc(C=Nn2cnnc2)c(C)n1-c1ccc(OCc2ccccc2F)cc1` [MLS000112180] it is > 3.67 µM.

The compound `O=C(CSc1nnc(COc2cccc3cccnc23)o1)N1CCc2ccccc21` [1-(2,3-Dihydro-indol-1-yl)-2-[5-(quinolin-8-yloxymethyl)-[1,3,4]oxadiazol-2-ylsulfanyl]-ethanone] yielded an IC50 of 4.4 µM. `Cc1cnc(C(=O)Nc2cccc3cccnc23)cn1` [5-Methyl-pyrazine-2-carboxylic acid quinolin-8-ylamide] showed an IC50 of 8.91 µM.

Compound `COC(=O)c1sc(NC(=O)c2ccc(OC)cc2OC)nc1C` [2-[(2,4-dimethoxybenzoyl)amino]-4-methyl-thiazole-5-carboxylic acid methyl ester] yielded an IC50 of 2.86 µM. With `c1ccc(-c2cn3nc(-c4ccccc4)sc3n2)cc1` [2,6-diphenylimidazo[2,1-b][1,3,4]thiadiazole], the IC50 turned out to be 2.02 µM.

The compound `Cn1ncnc2c(=O)n(C)c(=O)nc1-2` displayed a half-inhibitory concentration (IC50) of 0.75 µM.

Regarding `COc1cccc(NC(=O)CSc2nnc(-c3cc(C)n(-c4ccccc4)c3C)o2)c1` [2-[[5-(2,5-dimethyl-1-phenyl-3-pyrrolyl)-1,3,4-oxadiazol-2-yl]thio]-N-(3-methoxyphenyl)acetamide], the IC50 was 3.4 µM. The same measure, in the same setting: the result for `Cc1ccc(N2C(=O)c3ccccc3C2O)nc1` (centres undefined) [2-(5-methylpyridin-2-yl)-3-oxidanyl-3H-isoindol-1-one] reads 8.67 µM. Still for that read-out and setting: the figure for `Cc1ccsc1C(=O)OCC(=O)c1cc(C)n(CC2CCCO2)c1C` (centres undefined) [3-methyl-2-thiophenecarboxylic acid [2-[2,5-dimethyl-1-(2-oxolanylmethyl)-3-pyrrolyl]-2-oxoethyl] ester] is > 0.0453 µM. On the same count and under the same terms, the figure for `Cc1cc(NC(=O)CCCS(=O)(=O)c2nc(-c3cccs3)cc(C(F)(F)F)n2)no1` [MLS000086269] is 8.2 µM; for `O=C(Nc1nc(-c2ccccn2)cs1)c1ccc(Cl)s1` [5-chloranyl-N-(4-pyridin-2-yl-1,3-thiazol-2-yl)thiophene-2-carboxamide] it is > 3.67 µM; for `CC(C)NCC(O)Cn1c2c(c3ccccc31)CCc1c-2cnn1-c1ccccc1` (centres undefined) [1-(3-phenyl-4,5-dihydropyrazolo[4,3-a]carbazol-10-yl)-3-(propan-2-ylamino)-2-propanol] it is 5.85 µM. The compound `Cc1oc2cc3c(C(=O)OCCN(C)C)c(C)oc3cc2c1C(=O)OCCN(C)C` [2,6-Dimethyl-benzo[1,2-b;4,5-b']difuran-3,7-dicarboxylic acid bis-(2-dimethylamino-ethyl) ester] showed an IC50 of 0.813 µM. The same measure, in the same setting: the figure for `Clc1ccc(-c2nc(-c3ccccn3)no2)cc1Cl` [5-(3,4-dichlorophenyl)-3-(2-pyridinyl)-1,2,4-oxadiazole] is 5.62 µM; for `COCCn1c(C)cc(C(=O)CSc2nnc(C)s2)c1C` [1-[1-(2-methoxyethyl)-2,5-dimethyl-1H-pyrrol-3-yl]-2-[(5-methyl-1,3,4-thiadiazol-2-yl)thio]ethanone] it is 5.45 µM; for `CC(C)(C)c1ccc(-c2cc(N)[nH]n2)cc1` [SMR000095263] it is 5.25 µM. For the compound `Cc1cc(C)n(-c2nc(NC(C)C)nc(NC(C)C)n2)n1` [6-(3,5-Dimethyl-pyrazol-1-yl)-N,N'-diisopropyl-[1,3,5]triazine-2,4-diamine], the concentration for half-maximal inhibition (IC50) stood at 8.33 µM. Consider `Cc1ccc(-c2cc(C(=O)N3CCCC3)no2)cc1` [5-(4-methylphenyl)-3-(1-pyrrolidinylcarbonyl)isoxazole], for which the IC50 was > 3.67 µM.

Still in this assay, the particulars now being: inactive by the depositor's call.
`Oc1ccc(N2CCN(c3ncnc4sc5c(c34)CCC5)CC2)cc1` [4-[4-(7,8-dihydro-6H-cyclopenta[4,5]thieno[1,2-c]pyrimidin-1-yl)-1-piperazinyl]phenol] showed an IC50 of 13.7 µM. The same measure, in the same setting: the figure for `Cc1occc1C(=O)N1CCN(c2ccc(Cl)c(Cl)c2)CC1` [1-(3,4-dichlorophenyl)-4-(2-methyl-3-furoyl)piperazine] is 29.7 µM; for `Cc1ccc(NC(=O)Cc2nn(C)c(=O)c3ccccc23)cc1F` [MLS000047015] it is 11.4 µM; for `CCN(C1CCCCC1)S(=O)(=O)c1ccc(S(=O)(=O)NCc2ccncc2)cc1` [4-N-cyclohexyl-4-N-ethyl-1-N-(pyridin-4-ylmethyl)benzene-1,4-disulfonamide] it is 19.5 µM.

Regarding `c1ccc(CN2CCN(c3ncnc4c3[nH]c3ccccc34)CC2)cc1` [MLS000078384], it took 15.6 µM to reach half-maximal inhibition (IC50). Regarding `Cn1c(-c2ccco2)nc2cc3ccccc3cc21` [2-(2-furanyl)-3-methylbenzo[f]benzimidazole], the IC50 stood at 10.4 µM. Still for that read-out and setting: the figure for `CCCCOc1ccc(S(=O)(=O)Nc2cccnc2)cc1` [4-butoxy-N-(3-pyridinyl)benzenesulfonamide] is 25 µM.
